Legend:
A2780 = experiment: In vitro inhibitory activity against human tumor cell line A2780; type: functional, cell-based
A2780cisR = experiment: In vitro inhibitory activity against human tumor cell line A2780cis; type: functional, cell-based
SK-OV-3 = experiment: In vitro inhibitory activity against human tumor cell line SKOV-3; type: functional, cell-based
[1] = In vitro inhibitory activity against human tumor cell line CHI; type: functional
[2] = In vitro inhibitory activity against human tumor cell line CHIcis; type: functional

Measured: IC50

COc1cc2c(cc1OC)C(=O)N1C=C(CC(=O)Nc3ccc4c(c3)N=C[C@@H]3CCCN3C4=O)C[C@H]1C=N2
> 25 µM: all assays above

From ChEMBL document CHEMBL1136097, “Synthesis of the first examples of A-C8/C-C2 amide-Linked pyrrolo[2,1-c][1,4]benzodiazepine dimers” (Bioorg Med Chem Lett, 2003)
